# Experimental data: US9750718B2, “Methods of treating hepatic fibrosis and associated diseases by regulating Rev-ERB activity” (The Charlotte-Mecklenburg Hospital Authority, priority 2012, dated 2017)
# Key:
# LX-2 cells = assay: Response of LX-2 cells to Rev-erb agonist, with or without Rev-erbα overexpression; format: cell-based, human
# Protocol: Primary rat HSCs were isolated via standard pronase-collagenase digestion and subsequent density gradient centrifugation. LX-2 cells were treated with adipogenic mixture (MDI), 5 ng/ml of recombinant transforming growth factor-beta (TGFβ), or plated on Matrigel™ (growth condition which promotes HSC quiescence) for various time points. Gene expression was determined by RealTime PCR and Western blot. Immunocytochemistry followed by confocal microscopy was used to determine sub-cellular localization. A Rev-erb DNA binding domain (DBD) mutant was produced by standard molecular cloning. LX-2 cells were transfected with expression vectors or controls using Fugene®HD.
# primary rat HSCs [1] = assay: ECM gene expression by qRT-PCR in primary HSCs; format: cell-based; details: SR6452 10 μM, day Q to day 5 or day 9 to day 12
# Protocol: (§1) A series of experiments were conducted to determine the functional role of Rev-erbα in HSC transdifferentiation. In these experiments, culture-activated primary rat HSCs and human LX-2 cells were used. To determine the effect of Rev-erbα on HSC transdifferentiation and contraction, cells were treated with a specific synthetic modulator, SR6452 (10 μM). mRNA and protein expression were determined by qRT-PCR and Western blot, respectively. Changes in cellular morphology, Rev-erb expression/localization and αSMA expression were observed by confocal microscopy. Additionally, cell contractility was assessed.
# (§2) Primary rat HSCs were isolated by pronase/collagenase perfusion digestion followed by density gradient centrifugation with Optiprep. Media was replaced every other day to replenish Rev-erbα modulator SR6452, which was present at a 10 μM concentration. Cells were treated with MDIR mixture (IBMX, dexamethasone, insulin, rosiglitazone), TGFβ, or DMSO (vehicle). Some experiments were performed with the human HSC cell line, LX-2.
# (§3) mRNA expression was normalized to 18S rRNA.
# FIGS. 4A-B illustrate that the Rev-erbα modulator SR6452 can suppress/decrease ECM gene expression. Primary rat HSCs were cultured from quiescence (day Q) to day 5 (FIG. 4A) or from day 9 to day 12 (FIG. 4B) and treated with Rev-erbα modulator SR6452. qRT-PCR was performed to determine ECM gene expression. DMSO was used as the vehicle control, while SR6452 was used as the Rev-erbα modulator.
# primary rat HSCs [2] = assay: Adipogenesis in culture-activated primary HSCs (Oil Red O staining, qRT-PCR of adipogenic factors); format: cell-based
# Protocol: as §1, §2, §3
# FIGS. 3A-B illustrates that modulation of Rev-erbα activity can regulate adipogenesis. Primary HSCs were culture-activated for 5 days (A) or 15 days (B). Cells were treated with vehicle (DMSO, open bar), or the Rev-erbα modulator SR6452 ([…], purple bar) for the days indicated. The medium was changed every 48 hrs. FIG. 3A provides a chart summarizing the amount of PPARγ, SREBP1, and Lep mRNA on day 5.
# Rev-erbα [3] = molecular target: T1, Rev-erbα (Homo sapiens, UniProt P20393); details: cited from earlier work
# T1 sequence (P20393 1-614): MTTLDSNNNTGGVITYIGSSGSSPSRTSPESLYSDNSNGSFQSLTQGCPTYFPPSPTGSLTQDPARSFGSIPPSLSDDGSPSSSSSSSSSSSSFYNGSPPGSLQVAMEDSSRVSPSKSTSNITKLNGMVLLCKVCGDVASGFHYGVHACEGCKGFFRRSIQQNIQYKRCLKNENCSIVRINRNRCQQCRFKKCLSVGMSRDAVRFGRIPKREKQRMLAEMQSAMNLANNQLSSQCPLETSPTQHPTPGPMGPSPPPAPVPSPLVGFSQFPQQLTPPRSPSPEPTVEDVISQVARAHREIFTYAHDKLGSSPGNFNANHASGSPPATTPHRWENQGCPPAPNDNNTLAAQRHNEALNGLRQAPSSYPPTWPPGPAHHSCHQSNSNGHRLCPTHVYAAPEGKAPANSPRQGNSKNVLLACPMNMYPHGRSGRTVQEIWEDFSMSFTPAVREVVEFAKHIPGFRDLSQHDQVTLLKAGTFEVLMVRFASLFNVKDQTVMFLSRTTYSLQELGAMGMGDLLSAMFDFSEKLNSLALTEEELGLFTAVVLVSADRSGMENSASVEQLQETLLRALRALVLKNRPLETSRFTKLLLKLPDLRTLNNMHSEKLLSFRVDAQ
# primary rat HSCs [4] = assay: Myofibroblast marker expression and morphology (qRT-PCR, αSMA immunocytochemistry); format: cell-based
# Protocol: as §1, §3
# Prior to transfection, culture-activated HSCs (for varying days of activation) were seeded onto glass coverslips. Cells were fixed with 4% paraformaldehyde and stained with anti-αSMA antibody, a marker of HSC activation. Cells were imaged using a Zeiss confocal microscope. The fluorescence indicates Rev-erb or αSMA expression.
# (§4) FIGS. 5A-D illustrate that Rev-erbα modulator SR6452 can regulate myofibroblast marker expression and HSC contraction. Primary rat HSCs were cultured from quiescence (day Q) to day 5 (FIG. 5A) or from day 9 to day 12 (FIG. 5B) and treated with Rev-erbα modulator SR6452. qRT-PCR was performed for myofibroblast gene expression. Samples were normalized with 18S rRNA. […] HSCs (day 5) were embedded in a collagen gel and treated as indicated for 48 hrs. Gels were then released from plastic surface and contraction monitored after 72 hrs. Materials used were DMSO (vehicle control), SR6452, Rev-erb modulator; and BDM (2,3-Butanedione monoxime), myosin inhibitor.
# primary rat HSCs [5] = assay: Cell contraction assay (collagen gel); format: cell-based; details: HSCs embedded in collagen gel, treated 48 hrs, contraction monitored after 72 hrs
# Protocol: Primary rat HSCs (day 9, 2-5×10^6 cells/ml) were embedded in a collagen lattice per manufacturer's instructions. Cells were treated with synthetic Rev-erbα ligand SR6452. Collagen gel size change was imaged using a BioSpectrum Imaging System.
# as §4
# [6] = test system: CCl4-induced liver fibrosis; assay: CCl4-induced liver fibrosis mouse model (herovici histology, qRT-PCR of whole liver); format: in vivo
# Protocol: Male C57BL/6 mice (age 9 weeks) were injected intraperitoneally with carbon tetrachloride (CCl4) in sterile olive oil (1 μl CCl4/g body weight) twice a week for 5 weeks. Three weeks after initiation of CCl4 treatment, SR9009 (EMD Millipore, dissolved in DMSO) was administered 5 times a week at a dose of 0.1 mg/g body weight for two weeks. Mice were sacrificed 72 hours after the last dose of SR9009 and livers were harvested for further analysis. For histology studies, livers of the right and left lobes were fixed in 10% formalin, embedded in paraffin, sectioned, and stained with herovici to detect collagen deposition. For gene expression studies, total RNA was extracted from whole liver homogenates, and qRT-PCR performed to detect various markers, including αSMA, Col1α1, Col1α2, tenascin C, and connective tissue growth factor.
# Rev-erbα [7] = assay: Rev-erbα protein expression in HSCs under pro- and anti-fibrogenic factors (Western blot); format: cell-based, rat
# Protocol: as §2
# FIG. 2B show results from primary HSCs that were treated with pro-fibrogenic factor TGFβ (5 ng/ml) or myosin inhibitors blebbistatin (Bleb) or BDM (2,3-Butanedione monoxime) for 48 hrs. Cells were harvested for protein and Western blots performed to detect Rev-erbα.
# [8] = SR6452 10 μM, mRNA by qRT-PCR, day 5
# [9] = qRT-PCR whole liver, CCl4 + SR9009 0.1 mg/g
molecule,measurement,setting,value
"CC(C)(C)OC(=O)CN(Cc1ccc(Cl)cc1)Cc1ccc([N+](=O)[O-])s1 [SR6452, 1,1-Dimethylethyl-N-[(4-chlorophenyl)methyl]-N-[(5-nitro-2-thienyl)methyl]) glycinate]",response to Rev-erb agonist,LX-2 cells; LX-2 cells overexpressing Rev-erbα,sensitive
same,response to Rev-erb agonist,LX-2 cells; LX-2 cells without Rev-erbα overexpression,non-responsive
same,Type I collagen expression,primary rat HSCs [1],significantly down-regulated
same,fibronectin expression,primary rat HSCs [1],significantly down-regulated
same,tenascin C expression,primary rat HSCs [1],significantly down-regulated
same,lipid content in activated HSCs,"primary rat HSCs [2]; SR6452 10 μM, Oil Red O, day 15",increased
same,PPARγ expression,primary rat HSCs [2]; [8],up-regulated
same,SREBP1 expression,primary rat HSCs [2]; [8],up-regulated
same,HSC adipogenesis,primary rat HSCs [2]; exposure of quiescent HSCs,promoted
same,recruitment of nuclear receptor co-repressor (NCoR) peptide to Rev-erbα,Rev-erbα [3],enhances recruitment
same,EC50,Rev-erbα [3]; read-out: EC50 (synthetic Rev-erb agonist),250 nM
same,major regulatory and structural genes controlling myofibroblast contraction,"primary rat HSCs [4]; SR6452 10 μM, qRT-PCR normalized to 18S rRNA",repressive effects
same,cell morphology,"primary rat HSCs [4]; day 9 HSCs treated 72 hrs, αSMA/DAPI immunocytochemistry",slightly rounded/folded cytoplasm with disoriented actin fibers
same,effect on HSC activation,primary rat HSCs [4]; overall conclusion of Example 1,suppressive effect
same,HSC contraction,primary rat HSCs [5],impeded
CCOC(=O)N1CCC(CN(Cc2ccc(Cl)cc2)Cc2ccc([N+](=O)[O-])s2)C1 (stereo not shown) [SR9009],liver architecture and collagen deposition (herovici stain),"[6]; C57BL/6 mice, CCl4 5 weeks, SR9009 0.1 mg/g 5 times a week for two weeks",essentially normal liver architecture and amount of collagen deposition
same,CCl4-mediated liver fibrosis,"[6]; mice, histological and expression data",effective reverses
same,Col1α1 expression in liver,[6]; [9],down to almost normal levels
same,Col1α2 expression in liver,[6]; [9],down to almost normal levels
same,αSMA expression in liver,[6]; [9],down to almost normal levels
TGFβ,cytoplasmic Rev-erbα,Rev-erbα [7]; TGFβ treatment,stabilized
same,Rev-erbα protein expression,"Rev-erbα [7]; Western blot, TGFβ 5 ng/ml 48 hrs, MDIR or matrigel through day 4",increased
